# Laboratory results reported in US12378279B2, “Nicotinamide riboside hydrogen malate crystal, and its preparation method and application” (priority 2024, dated 2025).
# What was measured:
# [1] = Stability comparison: HPLC purity of samples sealed in polyethylene bags in a constant-temperature-humidity chamber; format: physicochemical; conditions: 25° C., RH 40%, sealed PE bag; for Decomposition rate on day 6: (initial sample purity−sample purity)/initial sample purity×100%
# Procedure: The nicotinamide riboside hydrogen malate crystal obtained from the above Examples and Comparative Examples products was sealed in polyethylene (PE) bags, with 1 gram per bag. […] Samples were tested at regular intervals. Sample solution was prepared through the following steps. […] Then, the sample solution was filtered through a membrane, and the sample purity was determined using high performance liquid chromatography (HPLC).
# [2] = Color change and hygroscopicity of products exposed to air (Karl Fischer moisture); format: physicochemical; conditions: RH 40%
# Procedure: The nicotinamide riboside hydrogen malate crystal products obtained from the above Examples and Comparative Examples were respectively exposed to air (air humidity and temperature were controlled). […] Moisture (Karl Fischer) determination method was performed using an MC-2000 automatic micro-moisture analyzer from Mince Instruments (Xiamen) Co., Ltd., and a karl fischer reagent from Nanjing Chemical Reagent Co., Ltd.
# [3] = Stability comparison: HPLC purity of samples in covered, sealed glass dishes in a constant-temperature-humidity chamber; conditions: 25° C., relative humidity 40%; for Decomposition rate over 6 days: (initial sample purity−sample purity)/initial sample purity×100%; for Purity: sealed glass dish
# Procedure: The nicotinamide riboside hydrogen malate crystal obtained herein and the commercially-available nicotinamide riboside hydrogen malate crystal samples (A and B) were each divided into seven portions and separately placed into seven glass sample dishes, with 1 g of sample in each dish. The dishes were covered and sealed. All the samples were stored in a constant-temperature-humidity chamber at 25° C. and a relative humidity of 40%. The purity of the samples was tested daily. The decomposition rate was calculated using the following formula: decomposition rate=(initial sample purity−sample purity)/initial sample purity×100%.
# Product purity analysis was performed through the following steps. One packet of the sample was dissolved in a 5 mL or 10 mL volumetric flask to prepare a 5 mL or 10 mL sample solution. Then, the purity of the sample was determined using high performance liquid chromatography (HPLC).
# The high performance liquid chromatography (HPLC) method parameters were as follows: isocratic elution with 5% water (0.1% formic acid) and 95% methanol (0.1% formic acid) as the mobile phase, a wavelength of 254 nm, a temperature of 23.0° C. with 54% relative humidity, samples dissolved in methanol, an ODS-2 column (4.6×250 mm, […]) with pressure maintained at 12-13 MPa, a flow rate of 1.0 mL/min, an injection volume of […] and a run time greater than or equal to 15 min.
# [4] = at 112-200° C., heating rate 10° C./min, nitrogen
# Procedure: Thermogravimetric analysis (TGA) was performed using a TGA55 instrument from TA Instruments, USA, with a temperature range of 14.8-300° C., a heating rate of 10° C./min and a nitrogen flow rate of 40 mL/min.
smiles,measurement,setting,value
"NC(=O)c1ccc[n+]([C@@H]2O[C@H](CO)[C@@H](O)[C@H]2O)c1.O=C(O)CC(O)C(=O)[O-] [Example 4, nicotinamide riboside hydrogen malate]",Purity on day 6,[1]; listed as EXAMPLE 4,98.79%
same,Initial purity,[1]; listed as EXAMPLE 4,99.51%
same,Decomposition rate on day 6,[1]; listed as EXAMPLE 4,0.72%
same,Product moisture,"[2]; Day 0, 25° C., listed as EXAMPLE 4",0.22%
same,Product moisture,"[2]; Day 6, 25° C., listed as EXAMPLE 4",1.8%
"NC(=O)c1ccc[n+]([C@@H]2O[C@H](CO)[C@@H](O)[C@H]2O)c1.O=C(O)CC(O)C(=O)[O-] [Example 2, nicotinamide riboside hydrogen malate]",Purity on day 6,[1]; listed as EXAMPLE 2,98.97%
same,Initial purity,[1]; listed as EXAMPLE 2,99.72%
same,Decomposition rate on day 6,[1]; listed as EXAMPLE 2,0.75%
same,Product moisture,"[2]; Day 0, 25° C., listed as EXAMPLE 2",0.28%
same,Product moisture,"[2]; Day 6, 25° C., listed as EXAMPLE 2",3.1%
"NC(=O)c1ccc[n+]([C@@H]2O[C@H](CO)[C@@H](O)[C@H]2O)c1.O=C(O)CC(O)C(=O)[O-] [Example 1, nicotinamide riboside hydrogen malate]",Stability compared to the commercially-available products,[3]; 6 days,better stability
same,Decomposition rate over 6 days,[3]; listed as Product of Example 1,0.759%
same,Purity,"[3]; day 0, listed as Product of Example 1",99.576%
same,Purity,"[3]; day 1, listed as Product of Example 1",99.553%
same,Purity,"[3]; day 2, listed as Product of Example 1",99.494%
same,Purity,"[3]; day 3, listed as Product of Example 1",99.510%
same,Purity,"[3]; day 4, listed as Product of Example 1",99.518%
same,Purity,"[3]; day 5, listed as Product of Example 1",99.499%
same,Purity,"[3]; day 6, listed as Product of Example 1",98.820%
same,Weight loss (TGA),[4],1-33%
same,Purity on day 6,[1]; listed as EXAMPLE 1,99.65%
same,Initial purity,[1]; listed as EXAMPLE 1,99.67%
same,Decomposition rate on day 6,[1]; listed as EXAMPLE 1,0.72%
same,Product moisture,"[2]; Day 0, 25° C., listed as EXAMPLE 1",0.30%
same,Product moisture,"[2]; Day 6, 25° C., listed as EXAMPLE 1",2%
"NC(=O)c1ccc[n+]([C@@H]2O[C@H](CO)[C@@H](O)[C@H]2O)c1.O=C(O)CC(O)C(=O)[O-] [Example 5, nicotinamide riboside hydrogen malate]",Purity on day 6,[1]; listed as EXAMPLE 5,99.15%
same,Initial purity,[1]; listed as EXAMPLE 5,99.78%
same,Decomposition rate on day 6,[1]; listed as EXAMPLE 5,0.63%
same,Product moisture,"[2]; Day 0, 25° C., listed as EXAMPLE 5",0.31%
same,Product moisture,"[2]; Day 6, 25° C., listed as EXAMPLE 5",2.9%
"NC(=O)c1ccc[n+]([C@@H]2O[C@H](CO)[C@@H](O)[C@H]2O)c1.O=C(O)CC(O)C(=O)[O-] [Example 6, nicotinamide riboside hydrogen malate]",Purity on day 6,[1]; listed as EXAMPLE 6,99.11%
same,Initial purity,[1]; listed as EXAMPLE 6,99.81%
same,Decomposition rate on day 6,[1]; listed as EXAMPLE 6,0.70%
same,Product moisture,"[2]; Day 0, 25° C., listed as EXAMPLE 6",0.29%
same,Product moisture,"[2]; Day 6, 25° C., listed as EXAMPLE 6",3.2%
"NC(=O)c1ccc[n+]([C@@H]2O[C@H](CO)[C@@H](O)[C@H]2O)c1.O=C(O)CC(O)C(=O)[O-] [Commercially-available product B, nicotinamide riboside hydrogen malate]",Decomposition rate over 6 days,[3],4.77%
same,Purity,[3]; day 0,99.750%
same,Purity,[3]; day 1,98.843%
same,Purity,[3]; day 2,98.310%
same,Purity,[3]; day 3,97.982%
same,Purity,[3]; day 4,96.530%
same,Purity,[3]; day 5,95.020%
same,Purity,[3]; day 6,94.989%
"NC(=O)c1ccc[n+]([C@@H]2O[C@H](CO)[C@@H](O)[C@H]2O)c1.O=C(O)CC(O)C(=O)[O-] [Commercially-available product A, nicotinamide riboside hydrogen malate]",Decomposition rate over 6 days,[3],8.37%
same,Purity,[3]; day 0,99.900%
same,Purity,[3]; day 1,98.355%
same,Purity,[3]; day 2,96.843%
same,Purity,[3]; day 3,95.752%
same,Purity,[3]; day 4,94.185%
same,Purity,[3]; day 5,93.250%
same,Purity,[3]; day 6,91.538%
"NC(=O)c1ccc[n+]([C@@H]2O[C@H](CO)[C@@H](O)[C@H]2O)c1.O=C(O)CC(O)C(=O)[O-] [Example 3, nicotinamide riboside hydrogen malate]",Purity on day 6,[1]; listed as EXAMPLE 3,98.95%
same,Initial purity,[1]; listed as EXAMPLE 3,99.69%
same,Decomposition rate on day 6,[1]; listed as EXAMPLE 3,0.74%
same,Product appearance,"[2]; Day 0, 25° C.",White
same,Product moisture,"[2]; Day 0, 25° C., listed as EXAMPLE 3",0.30%
same,Product appearance,"[2]; Day 6, 25° C.",White
same,Product moisture,"[2]; Day 6, 25° C., listed as EXAMPLE 3",2.4%
